Some results are limits rather than exact numbers.

In the test the target is T1, CBL-B (Homo sapiens, UniProt Q13191).
T1 construct: GST
T1 sequence (Q13191 whole entry): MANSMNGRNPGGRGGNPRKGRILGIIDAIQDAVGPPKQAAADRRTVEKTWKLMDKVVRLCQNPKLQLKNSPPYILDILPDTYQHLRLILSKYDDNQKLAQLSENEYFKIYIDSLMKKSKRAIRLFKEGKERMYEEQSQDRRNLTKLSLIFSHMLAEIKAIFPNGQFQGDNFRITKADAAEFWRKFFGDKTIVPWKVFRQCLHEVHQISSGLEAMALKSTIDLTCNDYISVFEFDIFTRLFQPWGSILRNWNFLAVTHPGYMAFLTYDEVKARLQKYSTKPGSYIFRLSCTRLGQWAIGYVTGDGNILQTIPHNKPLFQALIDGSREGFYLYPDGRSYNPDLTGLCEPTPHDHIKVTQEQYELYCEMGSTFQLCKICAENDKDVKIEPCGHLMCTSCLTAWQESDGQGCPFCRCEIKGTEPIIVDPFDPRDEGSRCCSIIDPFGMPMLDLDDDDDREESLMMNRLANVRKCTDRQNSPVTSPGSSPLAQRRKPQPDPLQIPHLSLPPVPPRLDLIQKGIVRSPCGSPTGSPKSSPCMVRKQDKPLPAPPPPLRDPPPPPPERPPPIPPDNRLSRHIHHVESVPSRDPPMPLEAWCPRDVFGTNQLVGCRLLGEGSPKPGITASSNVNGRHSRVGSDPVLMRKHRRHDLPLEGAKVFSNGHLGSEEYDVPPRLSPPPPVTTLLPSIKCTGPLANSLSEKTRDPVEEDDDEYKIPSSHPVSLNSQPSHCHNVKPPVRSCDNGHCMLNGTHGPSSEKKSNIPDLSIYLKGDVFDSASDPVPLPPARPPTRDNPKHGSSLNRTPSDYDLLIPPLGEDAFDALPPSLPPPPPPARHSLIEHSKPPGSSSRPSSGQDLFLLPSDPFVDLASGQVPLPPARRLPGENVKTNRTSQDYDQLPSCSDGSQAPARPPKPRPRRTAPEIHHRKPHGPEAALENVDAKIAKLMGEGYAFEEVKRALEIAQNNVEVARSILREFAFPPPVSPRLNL
In words: CBL-B TR-FRET IC50 screening (E1/E2 ubiquitination, Biotin-Ubiquitin, Anti GST-Tb donor / Streptavidin-d2 acceptor). The format is biochemical. To be noted: second part of Table 2 (head 'Patent Cmpd No / Updated Activity'); same CBL-B TR-FRET IC50 bins A-F; read-out: Updated Activity.
For the molecule `CNC(=O)Cc1cc([C@H](c2nncn2C)C2CCC2)cc(-n2cc3c(C(F)(F)F)cccn3c2=O)c1` (single isomer, unassigned) [Compound 538], the IC50 is more than 10000 nM. On to `Cn1cnnc1[C@H](c1cc(F)cc(-n2cc3c(C(F)(F)F)cc(CN4CC5(CC5)C4)cn3c2=O)c1)C1CCC1` (single isomer, unassigned) [Compound 539], for which the IC50 was less than 100 nM. Regarding `Cn1cnnc1[C@H](c1cc(F)cc(-n2cc3c(C(F)(F)F)cc(CN4CCC(C)(F)CC4)cn3c2=O)c1)C1CCC1` (single isomer, unassigned) [Compound 540], the IC50 lay within 301 to 1000 nM. To `CO[C@H]1C[C@@H]([C@@H](c2cccc(-n3cc4c(C(F)(F)F)cc(CN5CCC[C@H](C)C5)cn4c3=O)c2)c2nncn2C)C1` (single isomer, unassigned) [Compound 551] belongs 301 to 1000 nM; to `CO[C@H]1C[C@H]([C@H](c2cccc(-n3cc4c(C(F)(F)F)cc(CN5CCC[C@H](C)C5)cn4c3=O)c2)c2nncn2C)C1` (single isomer, unassigned) [Compound 552], 301 to 1000 nM. Consider `CO[C@H]1C[C@H]([C@@H](c2cccc(-n3cc4c(C(F)(F)F)cc(CN5CCC[C@H](C)C5)cn4c3=O)c2)c2nncn2C)C1` (single isomer, unassigned) [Compound 553], for which the IC50 is less than 100 nM. In the case of `CO[C@H]1C[C@@H]([C@H](c2cccc(-n3cc4c(C(F)(F)F)cc(CN5CCC[C@H](C)C5)cn4c3=O)c2)c2nncn2C)C1` (single isomer, unassigned) [Compound 554], the IC50 is less than 100 nM. With `C[C@H]1CCCN(Cc2cc(C(F)(F)F)c3cn(-c4cc(C#N)cc([C@H](c5nncn5C)C5COC5)c4)c(=O)n3c2)C1` (single isomer, unassigned) [Compound 555], the IC50 was more than 10000 nM. Turning to `C[C@H]1CCCN(Cc2cc(C(F)(F)F)c3cn(-c4cc(C#N)cc([C@@H](c5nncn5C)C5COC5)c4)c(=O)n3c2)C1` (single isomer, unassigned) [Compound 556], the IC50 is less than 100 nM.

With `Cn1cnnc1[C@@H](c1cc(C#N)cc(-n2cc3c(C(F)(F)F)cc(CN4CC5(CC5)C4)cn3c2=O)c1)C1CCC1` (single isomer, unassigned) [Compound 557], the IC50 was more than 10000 nM. Under `CNC(=O)CCc1cc([C@@H](c2nncn2C)C2CCC2)cc(-n2cc3c(C(F)(F)F)cccn3c2=O)c1` (single isomer, unassigned) [Compound 558] stands more than 10000 nM. To `CNC(=O)CCc1cc([C@H](c2nncn2C)C2CCC2)cc(-n2cc3c(C(F)(F)F)cccn3c2=O)c1` (single isomer, unassigned) [Compound 559] belongs more than 10000 nM; to `Cn1cnnc1[C@H](c1cc(C#N)cc(-n2cc3c(C(F)(F)F)cc(CN4CC5(CC5)C4)cn3c2=O)c1)C1CCC1` (single isomer, unassigned) [Compound 560], less than 100 nM; to `Cn1cnnc1[C@@H](c1cccc(-n2cc3c(C(F)(F)F)cc(CN4CCC[C@@](C)(O)C4)cn3c2=O)c1)C1CCC1` (single isomer, unassigned) [Compound 569], less than 100 nM. Consider `C[C@@H]1CN(Cc2cc(C(F)(F)F)c3cn(-c4cccc([C@H](c5nncn5C)C5CCC5)c4)c(=O)n3c2)CC[C@@H]1O` (single isomer, unassigned) [Compound 570], for which the IC50 was less than 100 nM. For `C[C@H]1CN(Cc2cc(C(F)(F)F)c3cn(-c4cccc([C@H](c5nncn5C)C5CCC5)c4)c(=O)n3c2)CC[C@H]1O` (single isomer, unassigned) [Compound 571], the IC50 was less than 100 nM. Turning to `C[C@H](c1cc(C(F)(F)F)c2cn(-c3cccc([C@H](c4nncn4C)C4CCC4)c3)c(=O)n2c1)N1CC[C@H](C#N)C1` (single isomer, unassigned) [Compound 573_P1], the IC50 was less than 100 nM. Under `C[C@@H](c1cc(C(F)(F)F)c2cn(-c3cccc([C@H](c4nncn4C)C4CCC4)c3)c(=O)n2c1)N1CC[C@H](C#N)C1` (single isomer, unassigned) [Compound 573_P2] stands less than 100 nM; under `C[C@H]1CCCN(Cc2cc(C(F)(F)F)c3cn(-c4cccc([C@H](c5nncn5C)[C@H]5C[C@@](C)(O)C5)c4)c(=O)n3c2)C1` (single isomer, unassigned) [Compound 574], more than 10000 nM. Consider `C[C@H]1CCCN(Cc2cc(C(F)(F)F)c3cn(-c4cccc([C@H](c5nncn5C)[C@H]5C[C@](C)(O)C5)c4)c(=O)n3c2)C1` (single isomer, unassigned) [Compound 575], for which the IC50 was more than 10000 nM. To `C[C@H]1CCCN(Cc2cc(C(F)(F)F)c3cn(-c4cccc([C@@H](c5nncn5C)[C@H]5C[C@](C)(O)C5)c4)c(=O)n3c2)C1` (single isomer, unassigned) [Compound 576] belongs more than 10000 nM; to `C[C@H]1CCCN(Cc2cc(C(F)(F)F)c3cn(-c4cccc([C@@H](c5nncn5C)[C@H]5C[C@@](C)(O)C5)c4)c(=O)n3c2)C1` (single isomer, unassigned) [Compound 577], more than 10000 nM; to `COC1([C@H](c2cccc(-n3cc4c(C(F)(F)F)cc(CN5CCC[C@H](C)C5)cn4c3=O)c2)c2nncn2C)CCC1` (single isomer, unassigned) [Compound 578], 1000 to 3000 nM. For the molecule `COC1([C@@H](c2cccc(-n3cc4c(C(F)(F)F)cc(CN5CCC[C@H](C)C5)cn4c3=O)c2)c2nncn2C)CCC1` (single isomer, unassigned) [Compound 579], the IC50 fell in the range of 301 to 1000 nM.

Turning to `C[C@H](c1cc(C(F)(F)F)c2cn(-c3cccc([C@H](c4nncn4C)C4CCC4)c3)c(=O)n2c1)N1CCC[C@H](C(F)(F)F)C1` (single isomer, unassigned) [Compound 580], the IC50 lay in the range of 3000 to 10000 nM. Under `Cc1cnnn1[C@H](c1cccc(-n2cc3c(C(F)(F)F)cc(CN4CCC[C@H](C)C4)cn3c2=O)c1)C1CCC1` (single isomer, unassigned) [Compound 582] stands more than 10000 nM; under `Cc1cnnn1[C@@H](c1cccc(-n2cc3c(C(F)(F)F)cc(CN4CCC[C@H](C)C4)cn3c2=O)c1)C1CCC1` (single isomer, unassigned) [Compound 583], 3000 to 10000 nM; under `C[C@H]1CCCN(Cc2cc(C(F)(F)F)c3cn(-c4cccc([C@@H](c5nc(CO)cn5C)C5CCC5)c4)c(=O)n3c2)C1` (single isomer, unassigned) [Compound 584], more than 10000 nM. On to `C[C@H]1CCCN(Cc2cc(C(F)(F)F)c3cn(-c4cccc([C@H](c5nc(CO)cn5C)C5CCC5)c4)c(=O)n3c2)C1` (single isomer, unassigned) [Compound 585], for which the IC50 was more than 10000 nM. Turning to `C[C@@H]1CN(Cc2cc(C(F)(F)F)c3cn(-c4cccc([C@H](c5nncn5C)C5CCC5)c4)c(=O)n3c2)CC[C@H]1O` (single isomer, unassigned) [Compound 586], the IC50 was less than 100 nM. As to `C[C@H]1C[C@@H](O)CN(Cc2cc(C(F)(F)F)c3cn(-c4cccc([C@H](c5nncn5C)C5CCC5)c4)c(=O)n3c2)C1` (single isomer, unassigned) [Compound 587], the IC50 is less than 100 nM. With `C[C@H]1CN(Cc2cc(C(F)(F)F)c3cn(-c4cccc([C@H](c5nncn5C)C5CCC5)c4)c(=O)n3c2)CC[C@@H]1O` (single isomer, unassigned) [Compound 588], the IC50 is less than 100 nM.

Consider `C[C@@H]1C[C@H](O)CN(Cc2cc(C(F)(F)F)c3cn(-c4cccc([C@H](c5nncn5C)C5CCC5)c4)c(=O)n3c2)C1` (single isomer, unassigned) [Compound 589], for which the IC50 is less than 100 nM. As for `C[C@@H]1CC(=O)NN1Cc1cc(C(F)(F)F)c2cn(-c3cccc([C@H](c4nncn4C)C4CCC4)c3)c(=O)n2c1` (single isomer, unassigned) [Compound 598], the IC50 was less than 100 nM.

With `C[C@H]1CC(=O)NN1Cc1cc(C(F)(F)F)c2cn(-c3cccc([C@H](c4nncn4C)C4CCC4)c3)c(=O)n2c1` (single isomer, unassigned) [Compound 599], the IC50 is less than 100 nM. Turning to `CO[C@H]1C[C@@](c2cccc(-n3cc4c(C(F)(F)F)cc([C@@H](C)N5CCC[C@H](C)C5)cn4c3=O)c2)(c2nncn2C)C1` (single isomer, unassigned) [Compound 600], the IC50 was less than 100 nM. Take `CO[C@H]1C[C@@](c2cccc(-n3cc4c(C(F)(F)F)cc([C@H](C)N5CCC[C@H](C)C5)cn4c3=O)c2)(c2nncn2C)C1` (single isomer, unassigned) [Compound 601]: the IC50 is less than 100 nM. For the molecule `CO[C@H]1C[C@@](c2cccc(-n3cc4c(C(F)(F)F)cc([C@@H](C)N5CCC(F)CC5)cn4c3=O)c2)(c2nncn2C)C1` (single isomer, unassigned) [Compound 602], the IC50 fell in the range of 301 to 1000 nM.

As for `CO[C@H]1C[C@@](c2cccc(-n3cc4c(C(F)(F)F)cc([C@H](C)N5CCC(F)CC5)cn4c3=O)c2)(c2nncn2C)C1` (single isomer, unassigned) [Compound 603], the IC50 was less than 100 nM.

As to `CO[C@H]1C[C@](c2cccc(-n3cc4c(C(F)(F)F)cc([C@@H](C)N5CCC[C@H](C)C5)cn4c3=O)c2)(c2nncn2C)C1` (single isomer, unassigned) [Compound 604], the IC50 is less than 100 nM. `CO[C@H]1C[C@](c2cccc(-n3cc4c(C(F)(F)F)cc([C@H](C)N5CCC[C@H](C)C5)cn4c3=O)c2)(c2nncn2C)C1` (single isomer, unassigned) [Compound 605]: the IC50 is less than 100 nM. Take `CO[C@H]1C[C@](c2cccc(-n3cc4c(C(F)(F)F)cc([C@@H](C)N5CCC(F)CC5)cn4c3=O)c2)(c2nncn2C)C1` (single isomer, unassigned) [Compound 606]: the IC50 lay within 100 to 300 nM.

Take `CO[C@H]1C[C@](c2cccc(-n3cc4c(C(F)(F)F)cc([C@H](C)N5CCC(F)CC5)cn4c3=O)c2)(c2nncn2C)C1` (single isomer, unassigned) [Compound 607]: the IC50 is less than 100 nM. Under `C[C@H](c1cc(C(F)(F)F)c2cn(-c3cccc([C@H](c4nncn4C)C4CCC4)c3)c(=O)n2c1)N1CCC[C@@H](C(F)(F)F)C1` (single isomer, unassigned) [Compound 613] stands less than 100 nM.

Values taken from US20240228482A1, “COMPOUNDS, COMPOSITIONS AND METHODS OF TREATING CANCER” (HOTSPOT THERAPEUTICS, INC., priority 2021, published 2024).
